Reference: publication PMC6706930, “A novel oral micellar fenretinide formulation with enhanced bioavailability and antitumour activity against multiple tumours from cancer stem cells” (Journal of Experimental & Clinical Cancer Research : CR, 2019)
Values belong to the molecule of their own block, whether it stands above or below them.

Legend:
[1] = Plasma pharmacokinetics, acute study (single oral administration); type: in vivo, CD1 female mice; details: for Cmax ±SD / AUC 0-last / HL / Tmax / Cmax / AUC(0-t): plasma analyte; for amount of metabolite in plasma in comparison to 4-HPR: study of multiple doses, after Bio-nFeR administration
Description: (§1) The experiments were performed in CD1 female mice, 7 weeks of age, (body weight 25 ± 2 g) obtained from Envigo RMS SrL (Udine, Italy). They were maintained under specific-pathogen-free conditions with constant temperature and humidity, according to institutional guidelines regularly checked by a certified veterinarian. Animal experimentation was conducted in conformance with the following laws, regulations, and policies governing the care and use of laboratory animals: Italian Governing Law (D. l. 26/2014; Authorization n.19/2008-A issued March 6, 2008 by the Ministry of Health). Mario Negri Institutional Regulations and Policies providing internal authorizations for persons conducting animal experiments (Quality Management System Certificate –UNI EN ISO 9001:2008 – Reg. N 86121). The experimental protocol was reviewed by the Mario Negri Institute Ethical Committee and approved by the Italian Ministry of Health (Aut. Min. No 489/2016-Pr).
(§2) The pharmacokinetics of oral Bio-nFeR was investigated in comparison to that of the reference formulation NCI-FeR, after single administration of multiple doses and after chronic administrations, daily for 2 weeks or bi-daily for 1 week. Bio-nFeR was reconstituted at 20 mg/mL fenretinide to allow the administration of 200 mg/Kg fenretinide that corresponded to the highest dose. The doses of 100, 50 and 10 mg/Kg were administered by using serial dilution of the 20 mg/mL solution.
(§3) NCI-FeR prepared, as per the NCI instructions, at 11.6% w:w fenretinide:internal capsule components, was diluted with corn oil to obtain the treatment solutions at the concentrations of 20, 15 and 10 mg/mL, corresponding to the administered doses of 200, 150 and 100 mg/Kg respectively.
(§4) The oral pharmacokinetics of Bio-nFeR were investigated in four independent groups of 24 mice, randomized to receive different treatment with the following fenretinide equivalent doses: 10, 50, 100 and 200 mg/Kg. The drug was administered by oral gavage and after treatment, blood samples were taken at 15 and 30 min and at 1, 2, 4, 8/10, 24 and 48 h and collected in heparinized tubes from the retro-orbital plexus of the mice under isoflurane anesthesia. Mice were then sacrificed by cervical dislocation and liver, kidney and brain were removed and immediately frozen in dry-ice for future determination. To obtain plasma, blood was centrifuged at 4000 rpm for 10 min at 4 °C. To evaluate fenretinide and metabolites excretion, urine and faeces were collected over a 0–24 h and 24–48 h periods. The collection was performed in three mice per group of treatment, individually housed into metabolic cages for urine and faeces collection. All the biological samples were stored at − 20 °C until analysis. To compare the absorption of Bio-nFeR to NCI-FeR and to study the bioavailability, another independent groups of 24 mice were randomized to receive an oral dose of 200 mg/Kg of NCI-FeR. Blood samples were taken at the time reported above. Twenty-four hours fractions of urine and faeces were collected in three mice per group of treatment. Plasma and the other biological specimens were stored at − 20 °C until analysis. Chronic study: the oral pharmacokinetic of Bio-nFeR in comparison with NCI-FeR were also investigated after chronic administrations. Mice were divided in three independent groups, randomized to receive a single treatment of 150 mg/Kg or different repeated treatments of 150 mg/Kg, daily for 2 weeks (12 days on and 2 days off), or 100 mg/Kg bi-daily for 1 week (5 days on 2 days off). Bio-nFeR and NCI-FeR were administered by oral gavage, collecting blood samples at 0.5, 1, 2, 4, 8/10 and 24 h, the day of the single treatment and at 0, 1, 2, 4, 8/10, 24 and 48 h after the last dose of both the chronic treatments. The procedures of blood collection, plasma preparation, sacrifice of mice and storing of samples were as reported in acute study. […]

[2] = Plasma pharmacokinetics, chronic study (150 mg/Kg single vs daily for 2 weeks); type: in vivo, CD1 female mice; details: for relative percent amount of metabolite versus 4-HPR in plasma: after single and repeated treatment; for AUC(0-t): plasma, po, 150 mg/kg
Description: as §1, §2, §3, §4

[3] = stated as known, no reference given; cited from earlier work
[4] = mice, single oral Bio-nFeR 10 mg/kg, Suppl. Table 2 A
[5] = mice, single oral Bio-nFeR 50 mg/kg, Suppl. Table 2 A
[6] = mice, single oral Bio-nFeR 100 mg/kg, Suppl. Table 2 A
[7] = mice, single oral Bio-nFeR 200 mg/kg, Suppl. Table 2 A
[8] = single oral Bio-nFeR 10 mg/kg, Suppl. Table 2 A
[9] = single oral Bio-nFeR 50 mg/kg, Suppl. Table 2 A
[10] = single oral Bio-nFeR 100 mg/kg, Suppl. Table 2 A
[11] = single oral Bio-nFeR 200 mg/kg, Suppl. Table 2 A
[12] = single oral Bio-nFeR, 4-HPR dose 200mg/Kg, Suppl. Table 2 B
[13] = single oral NCI-nFeR, 4-HPR dose 200mg/Kg, Suppl. Table 2 B
[14] = plasma analyte, oral Bio-nFeR 150 mg/kg daily, 2 week
[15] = plasma analyte, oral Bio-nFeR 150 mg/kg, Day 1
[16] = female, CD1, mouse, plasma, po, 200 mg/kg, single oral Bio-nFeR, 4-HPR dose 200mg/Kg, Suppl. Table 2 B
[17] = female, CD1, mouse, plasma, po, 200 mg/kg, single oral NCI-nFeR, 4-HPR dose 200mg/Kg, Suppl. Table 2 B
[18] = female, CD1, mouse, plasma analyte, oral Bio-nFeR 150 mg/kg daily, 2 week
[19] = female, CD1, mouse, plasma analyte, oral Bio-nFeR 150 mg/kg, Day 1

- Cmax ±SD [1, 4]: 505.1 ng/mL
- Cmax ±SD [1, 5]: 2389.1 ng/mL
- Cmax ±SD [1, 6]: 3109.1 ng/mL
- Cmax ±SD [1, 7]: 4071.2 ng/mL
- AUC 0-last [1, 8]: 4145.3 ng·h/mL
- HL [1, 8]: 5.2 h
- Tmax [1, 8]: 2 h
- AUC 0-last [1, 9]: 24372.6 ng·h/mL
- HL [1, 9]: 5.4 h
- Tmax [1, 9]: 4 h
- AUC 0-last [1, 10]: 38500.3 ng·h/mL
- HL [1, 10]: 4.8 h
- Tmax [1, 10]: 4 h
- AUC 0-last [1, 11]: 58677.2 ng·h/mL
- HL [1, 11]: 5.3 h
- Tmax [1, 11]: 4 h
- AUC 0-last [1, 12]: 58677.2 ng·h/mL
- Cmax ±SD [1, 12]: 4071.2 ng/mL
- HL [1, 12]: 5.3 h
- Tmax [1, 12]: 4 h
- AUC 0-last [1, 13]: 39875.4 ng·h/mL
- Cmax ±SD [1, 13]: 3372.3 ng/mL
- HL [1, 13]: 5.4 h
- Tmax [1, 13]: 4 h
- amount of metabolite in plasma in comparison to 4-HPR [1]: about 50%
- relative percent amount of metabolite versus 4-HPR in plasma [2]: about 50%
- AUC 0-last [2, 14]: 54434.2 ng·h/mL
- Cmax ±SD [2, 14]: 4282.6 ng/mL
- HL [2, 14]: 4.7 h
- Tmax [2, 14]: 4 h
- AUC 0-last [2, 15]: 33726.1 ng·h/mL
- Cmax ±SD [2, 15]: 2979.4 ng/mL
- HL [2, 15]: 3.9 h
SMILES: CC1=C(/C=C/C(C)=C/C=C/C(C)=C/C(=O)Nc2ccc(O)cc2)C(C)(C)CCC1=O [4-oxo-4-HPR]

- Cmax ([1]; female, CD1, mouse, plasma, po, 10 mg/kg, mice, single oral Bio-nFeR 10 mg/kg, Suppl. Table 2 A): 601 ng/mL
- AUC(0-t) ([1]; female, CD1, mouse, plasma, po, 10 mg/kg, single oral Bio-nFeR 10 mg/kg, Suppl. Table 2 A): 6750 ng·h/mL
- Tmax ([1]; female, CD1, mouse, plasma, po, 10 mg/kg, single oral Bio-nFeR 10 mg/kg, Suppl. Table 2 A, read-out: Tmax): 2 h
- Cmax ([1]; female, CD1, mouse, plasma, po, 50 mg/kg, mice, single oral Bio-nFeR 50 mg/kg, Suppl. Table 2 A): 3650 ng/mL
- AUC(0-t) ([1]; female, CD1, mouse, plasma, po, 50 mg/kg, single oral Bio-nFeR 50 mg/kg, Suppl. Table 2 A): 39200 ng·h/mL
- Tmax ([1]; female, CD1, mouse, plasma, po, 50 mg/kg, single oral Bio-nFeR 50 mg/kg, Suppl. Table 2 A, read-out: Tmax): 4 h
- Cmax ([1]; female, CD1, mouse, plasma, po, 100 mg/kg, mice, single oral Bio-nFeR 100 mg/kg, Suppl. Table 2 A): 5340 ng/mL
- AUC(0-t) ([1]; female, CD1, mouse, plasma, po, 100 mg/kg, single oral Bio-nFeR 100 mg/kg, Suppl. Table 2 A): 66300 ng·h/mL
- Tmax ([1]; female, CD1, mouse, plasma, po, 100 mg/kg, single oral Bio-nFeR 100 mg/kg, Suppl. Table 2 A, read-out: Tmax): 4 h
- Cmax ([1]; female, CD1, mouse, plasma, po, 200 mg/kg, mice, single oral Bio-nFeR 200 mg/kg, Suppl. Table 2 A): 6840 ng/mL
- AUC(0-t) ([1]; female, CD1, mouse, plasma, po, 200 mg/kg, single oral Bio-nFeR 200 mg/kg, Suppl. Table 2 A): 113000 ng·h/mL
- Tmax ([1]; female, CD1, mouse, plasma, po, 200 mg/kg, single oral Bio-nFeR 200 mg/kg, Suppl. Table 2 A, read-out: Tmax): 2 h
- AUC(0-t) [1, 16]: 113000 ng·h/mL
- Cmax [1, 16]: 6840 ng/mL
- Tmax ([1]; female, CD1, mouse, plasma, po, 200 mg/kg, single oral Bio-nFeR, 4-HPR dose 200mg/Kg, Suppl. Table 2 B, read-out: Tmax): 2 h
- AUC(0-t) [1, 17]: 97900 ng·h/mL
- Cmax [1, 17]: 8460 ng/mL
- Tmax ([1]; female, CD1, mouse, plasma, po, 200 mg/kg, single oral NCI-nFeR, 4-HPR dose 200mg/Kg, Suppl. Table 2 B, read-out: Tmax): 4 h
- half-life ([1]; female, CD1, mouse, plasma, mice, oral Bio-nFeR, different doses, read-out: elimination half-life (converted)): ~7 h
- HL [1, 8]: 7.5 h
- HL [1, 9]: 7.3 h
- HL [1, 10]: 6.5 h
- HL [1, 11]: 7.2 h
- HL [1, 12]: 7.2 h
- HL [1, 13]: 6.7 h
- AUC(0-t) [2, 18]: 85100 ng·h/mL
- AUC(0-t) [2, 19]: 56900 ng·h/mL
- Cmax at 2 weeks [2, 18]: 6810 ng/mL
- Tmax at 2 weeks [2, 18]: 4 h
- Cmax [2, 19]: 6350 ng/mL
- Tmax ([2]; female, CD1, mouse, plasma analyte, oral Bio-nFeR 150 mg/kg, Day 1, read-out: Tmax): 20 h
- HL [2, 14]: 5.7 h
- HL [2, 15]: 5.3 h
SMILES: CC1=C(/C=C/C(C)=C/C=C/C(C)=C/C(=O)Nc2ccc(O)cc2)C(C)(C)CCC1 [4-HPR, 4-hydroxy (phenyl)retinamide, reference compound]

- Cmax ±SD [1, 4]: 120.6 ng/mL
- Cmax ±SD [1, 5]: 778.9 ng/mL
- Cmax ±SD [1, 6]: 1112.6 ng/mL
- Cmax ±SD [1, 7]: 1070.5 ng/mL
- AUC 0-last [1, 8]: 1750.7 ng·h/mL
- HL [1, 8]: 9.4 h
- Tmax [1, 8]: 4 h
- AUC 0-last [1, 9]: 9931.5 ng·h/mL
- HL [1, 9]: 10.3 h
- Tmax [1, 9]: 4 h
- AUC 0-last [1, 10]: 15439.7 ng·h/mL
- HL [1, 10]: 8.6 h
- Tmax [1, 10]: 4 h
- AUC 0-last [1, 11]: 21449.6 ng·h/mL
- HL [1, 11]: 11.6 h
- Tmax [1, 11]: 4 h
- AUC 0-last [1, 12]: 21449.6 ng·h/mL
- Cmax ±SD [1, 12]: 1070.5 ng/mL
- HL [1, 12]: 11.6 h
- Tmax [1, 12]: 4 h
- AUC 0-last [1, 13]: 23406.1 ng·h/mL
- Cmax ±SD [1, 13]: 1407.0 ng/mL
- HL [1, 13]: 9.9 h
- Tmax [1, 13]: 4 h
- amount of metabolite in plasma in comparison to 4-HPR [1]: ~15%
- relative percent amount of metabolite versus 4-HPR in plasma [2]: ~15%
- AUC 0-last [2, 14]: 22086.1 ng·h/mL
- Cmax ±SD [2, 14]: 1147.9 ng/mL
- HL [2, 14]: 11.2 h
- Tmax [2, 14]: 4 h
- AUC 0-last [2, 15]: 10435.4 ng·h/mL
- Cmax ±SD [2, 15]: 798.0 ng/mL
- HL [2, 15]: 8.6 h
- Tmax [2, 15]: 4 h
SMILES: COc1ccc(NC(=O)\C=C(C)/C=C/C=C(C)\C=C\C2=C(C)CCCC2(C)C)cc1 [MPR]
- activity of the metabolite [3]: inactive
